What follows are compounds tested on HIV (assay: Cellular assay: anti-viral activity in HIV-infected MT4 cells (MTT)). Settings: Human immunodeficiency virus 1, 120 h, five days incubation, negative logarithm of EC50.
Assay type: cell-based
Protocol: Compounds of the present invention were examined for anti-viral activity in a cellular assay, which was performed according to the following procedure.
HIV- or mock-infected MT4 cells were incubated for five days in the presence of various concentrations of the inhibitor. At the end of the incubation period, the replicating virus in the control cultures has killed all HIV-infected cells in the absence of any inhibitor. Cell viability was determined by measuring the concentration of MTT, a yellow, water soluble tetrazolium dye that is converted to a purple, water insoluble formazan in the mitochondria of living cells only. Upon solubilization of the resulting formazan crystals with isopropanol, the absorbance of the solution was monitored at 540 nm. The values correlate directly to the number of living cells remaining in the culture at the completion of the five day incubation. The inhibitory activity of the compound was monitored on the virus-infected cells and was expressed as EC50 and EC90. These values represent the amount of the compound required to protect 50% and 90%, respectively, of the cells from the cytopathogenic effect of the virus. The toxicity of the compound was measured on the mock-infected cells and was expressed as CC50, which represents the concentration of compound required to inhibit the growth of the cells by 50%. The selectivity index (SI) (ratio CC50/EC50) is an indication of the selectivity of the anti-HIV activity of the inhibitor. Wherever results are reported as e.g. pEC50 or pCC50 values, the result is expressed as the negative logarithm of the result expressed as EC50 or CC50 respectively.
Compound `COCCOCCOCCn1c2ccccc2c2c1cc(C#N)c(=O)n2-c1ccc([N+](=O)[O-])cc1` [Compound 11] has an EC50 of 1580 nM. `CC(=O)N1CCN(CCCn2c3ccccc3c3c2cc(C#N)c(=O)n3-c2ccc([N+](=O)[O-])cc2)CC1` [Compound 35] was tested, and the EC50 was 2510 nM. In the case of `CC1CN(CCn2c3ccccc3c3c2cc(C#N)c(=O)n3-c2ccc([N+](=O)[O-])cc2)CC(C)O1` (stereo not drawn) [Compound 40], the EC50 is reported as 1000 nM. In the case of `COCCOCCn1c2ccccc2c2c1cc(C#N)c(=O)n2-c1ccc([N+](=O)[O-])cc1` [Compound 4, 5-[2-(2-Methoxy-ethoxy)-ethyl]-1-(4-nitro-phenyl)-2-oxo-2,5-dihydro-1H-pyrido-[3,2-b]indole-3-carbonitrile], the EC50 is reported as 316 nM. `CC1CCCN(CCn2c3ccccc3c3c2cc(C#N)c(=O)n3-c2ccc([N+](=O)[O-])cc2)C1` (stereo not drawn) [Compound 31] showed an EC50 of 1000 nM. With `N#Cc1cc2c(c3ccccc3n2CCCONC(=N)N)n(-c2ccc([N+](=O)[O-])cc2)c1=O` [Compound 25] the EC50 was 15800 nM. Work on `N#Cc1cc2oc3ccccc3c2n(-c2ccc([N+](=O)[O-])cc2)c1=O` [Compound 42, 1-(4-Nitro-phenyl)-2-oxo-1,2-dihydro-benzo[4,5]furo[3,2-b]pyridine-3-carbonitrile] yielded an EC50 of 794 nM. `N#Cc1cc2c(c3ccccc3n2CC(O)CN2CCSCC2)n(-c2ccc([N+](=O)[O-])cc2)c1=O` (stereo not drawn) [Compound 9] gave an EC50 of 794 nM. Work on `COC(Cn1c2ccccc2c2c1cc(C#N)c(=O)n2-c1ccc([N+](=O)[O-])cc1)C[N+](C)(C)C` (stereo not drawn) [Compound 13] yielded an EC50 of 15800 nM. With `CC(=O)OC(CN1CCCC1)Cn1c2ccccc2c2c1cc(C#N)c(=O)n2-c1ccc([N+](=O)[O-])cc1` (stereo not drawn) [Compound 21] the EC50 was 501 nM. Compound `N#Cc1cc2c(c3ccccc3n2CC(O)CN2CCCC2)n(-c2ccc([N+](=O)[O-])cc2)c1=O` (stereo not drawn) [Compound 2, 5-(2-Hydroxy-3-pyrrolidin-1-yl-propyl)-1-(4-nitro-phenyl)-2-oxo-2,5-dihydro-1H-pyrido[3,2-b]indole-3-carbonitrile] has an EC50 of 251 nM.

These compounds were tested against T1, HIV reverse transcriptase (Human immunodeficiency virus type 1 group M subtype B, UniProt P04585) (assay: In vitro inhibition of HIV reverse transcriptase (kit TRK 1022, 3H-TTP)). Settings: HIV RT enzyme, 4 hours at 37° C., no conversion to active metabolite needed.
T1 construct: 5 μl HIV RT enzyme solution at a final enzyme activity of 15 mU per 50 μl reaction; purchased Amersham Life Sciences TRK 1022
Assay type: biochemical
Protocol: The assay was run using kit TRK 1022 (Amersham Life Sciences) according to the manufacturer's instructions with slight modifications. Test compounds were diluted in steps of 1/4 in 100% DMSO and subsequently transferred to Medium A (1/50 dilution; medium A: RPMI 1640+10% FetalClone 1+Gentamycin 20 mg/L). 25 μl of compound (in 2% DMSO in Medium A) or 25 μl of 2% DMSO in medium A was added to wells. To each well was added 25.5 μl master mix (master mix: 5 μl primer/template beads, 10 μl assay buffer, 0.5 μl tracer (3H-TTP), 5 μl HIV RT enzyme solution at a final enzyme activity of 15 mU per 50 μl reaction, 5 μl medium A). The plates were sealed, marked as radioactive and incubated during 4 hours at 37° C. Subsequently, 100 μl stop solution was added to each well (except R1). The radioactivity was counted in a TopCount.
For `N#Cc1cc2c(c3ccccc3n2CC(O)CN2CCCC2)n(-c2ccc([N+](=O)[O-])cc2)c1=O` (stereo not drawn) [Compound 2, 5-(2-Hydroxy-3-pyrrolidin-1-yl-propyl)-1-(4-nitro-phenyl)-2-oxo-2,5-dihydro-1H-pyrido[3,2-b]indole-3-carbonitrile], the “inhibition of HIV reverse transcriptase in vitro” value was “inhibit IV reverse transcriptase in vitro”.

From patent publication US20070238727A1, “5-Substituted 1-Phenyl-1,5-Dihydro-Pyrido[3,2-B]Indol-2-Ones and Analogs as Anti-Virals” (Tibotec BVBA, priority 2004, published 2007)
